This note sets out measurements from ChEMBL document CHEMBL4765314, “Rational design and biological evaluation of gemfibrozil modified Xenopus GLP-1 derivatives as long-acting hypoglycemic agents” (Eur J Med Chem, 2020).

pEC50: −log10 of the molar value. Calls of active or inactive are those of the source. No cut-off for these calls is given here. Starred links: 1 amine or outer side, 2 acyl side, 3 side chain; linkers in the order of their positions; H or OH if unused. Non-standard residues stand in square brackets, D forms with d. Residues, ends and D or L forms follow the SMILES beside them. Groups on a side chain read outwards from the residue. ξ: configuration not given here. *: point of attachment. Glycoloyl(O-gemfibrozoyl) = Cc1ccc(C)c(OCCCC(C)(C)C(=O)OCC(=O)*)c1; γGlu = O=C(O)[C@H](CCC(=O)[*:2])N[*:1]; Thr(3ξ) = CC(O)[C@H](N)C(=O)O; Aun = NCCCCCCCCCCC(=O)O

Data set [1] in a line: Tmax in Sprague-Dawley rat at 50 nmol/kg, sc measured up to 24 hrs by LC-MS/MS analysis. The format is ADME, organism-based. The settings on record: in vivo.
Data set [2] deals with Glucagon-like peptide 1 receptor (Homo sapiens, UniProt P43220). Description: Agonist activity at human GLP-1R expressed in HEK293 cells assessed as stimulation of cAMP accumulation incubated for 60 mins by HTRF assay. The format is functional, cell-based.
Data set [3] deals with Mus musculus. Briefly: Hypoglycemic activity in 12 hrs fasted ICR mouse assessed as reduction in blood glucose level at 25 nmol/kg, ip dosed 30 mins before glucose challenge measured up to 120 mins by OGTT method. The data set is classed as functional, organism-based. The settings on record: time 150.0 min.
A further data set has as its target Albumin (Homo sapiens, UniProt P02768). Description: Binding affinity to human serum albumin assessed as retention factor by HPAC method. The data set is classed as ADME.
Data set [4] can be described thus: Stability in Sprague-Dawley rat plasma assessed as half life at 1000 ng/ml measured up to 48 hrs under shaking condition by LC-MS/MS analysis. The data set is classed as ADME, cell-free.
Data set [5] is described as follows: Half life in Sprague-Dawley rat at 50 nmol/kg, sc measured up to 24 hrs by LC-MS/MS analysis. The settings on record: in vivo. The format is ADME, organism-based.
For data set [6], the system named is Mus musculus. Briefly: Reduction in HbA1c level in db/db mouse at 25 nmol/kg, sc administered every two days for 42 days by OGTT. The data set is classed as functional, organism-based. The settings on record: time 42.0 day.
In data set [7] the test system is Mus musculus. Description: Effect in normal chow diet fed C57BL/6 mouse assessed as reduction in body weight increase at 25 nmol/kg, sc administered every two days for 21 days (reference value: 10.8%). Details: scale not given: the % may be the effect or the level left. As to conditions: time 21.0 day. The format is functional, organism-based.
The subject of data set [8] is Mus musculus. Briefly: Improvement in glucose tolerance in db/db mouse at 25 nmol/kg, sc administered every 2 days for 42 days by OGTT. The data set is classed as functional, organism-based. As to conditions: time 42.0 day.
Data set [9] concerns Mus musculus. Briefly: Hypoglycemic activity in normal chow diet fed C57BL/6 mouse assessed as fasting blood glucose at 25 nmol/kg, sc administered every two for 21 days. The data set is classed as functional, organism-based. The settings on record: time 21.0 day.
The test system of data set [10] is Mus musculus. Briefly: Reduction in serum total cholesterol in C57BL/6 mouse model of high-fat diet induced obesity at 25 nmol/kg, sc administered every two days for 21 days. The data set is classed as functional, organism-based. The settings on record: time 21.0 day.
Data set [11] has as its system Mus musculus. Briefly: Increase in serum HDL level in C57BL/6 mouse model of high-fat diet induced obesity at 25 nmol/kg, sc administered every two days for 21 days. The format is functional, organism-based. The settings on record: time 21.0 day.
Data set [12] concerns Mus musculus. Briefly: Reduction in body fat content in C57BL/6 mouse model of high-fat diet induced obesity at 25 nmol/kg, sc administered every two days for 21 days relative to control. The data set is classed as functional, organism-based. As to conditions: time 21.0 day. Details: scale not given: the % may be the effect or the level left.
Data set [13] concerns Mus musculus. Briefly: Reduction in serum LDL level in C57BL/6 mouse model of high-fat diet induced obesity at 25 nmol/kg, sc administered every two days for 21 days. The settings on record: time 21.0 day. The data set is classed as functional, organism-based.
Data set [14] relates to Mus musculus. Description: Anorectic effect in normal chow diet fed C57BL/6 mouse assessed as reduction in food intake at 25 nmol/kg, sc administered every two for 21 days. The data set is classed as functional, organism-based. The settings on record: time 21.0 day.
Data set [15] deals with Mus musculus. Briefly: Improvement in glucose tolerance in db/db mouse assessed as time for superior hypoglycemic effect by measuring glucose AUC at 25 nmol/kg, sc administered twice daily for 42 days by OGTT. The data set is classed as functional, organism-based. As to conditions: time 42.0 day.
In data set [16] the test system is Mus musculus. Briefly: Reduction in body weight in C57BL/6 mouse model of diet induced obesity at 25 nmol/kg, sc administered every two days for 21 days relative to control. The data set is classed as functional, organism-based. Details: scale not given: the % may be the effect or the level left. The settings on record: time 21.0 day.
Data set [17] deals with Mus musculus. Description: Inhibition of solid-phase gastric emptying in 12 hrs fasted ICR mouse assessed reduction in gastric emptying rate at 25 nmol/kg, ip allowed for food intake 1 hrs and measured after 4 hrs […]. The data set is classed as functional. Details: scale not given: the % may be the effect or the level left.
For data set [18], the system named is Mus musculus. Briefly: Inhibition of fat mass gain in normal chow diet fed C57BL/6 mouse at 25 nmol/kg, sc administered every two days for 21 days. The settings on record: time 21.0 day. The format is functional, organism-based.
Data set [19] relates to Mus musculus. Description: Reduction in serum triglyceride in C57BL/6 mouse model of high-fat diet induced obesity at 25 nmol/kg, sc administered every two days for 21 days. The format is functional, organism-based. As to conditions: time 21.0 day.
Data set [20] deals with Mus musculus. Description: Hypoglycemic activity in 16 hrs fasted db/db mouse assessed as reduction in blood glucose level at 25 nmol/kg, ip treated 30 mins before glucose challenge and measured at 0 to 24 hrs by multiple OGTT. The data set is classed as functional, organism-based. As to conditions: time 1470.0 min.
Data set [21] concerns Mus musculus. Briefly: Improvement in glucose tolerance in standard chow diet fed C57BL/6 mouse at 25 nmol/kg, sc administered every 2 days for 21 days. The format is functional, organism-based. The settings on record: time 21.0 day.
Data set [22] in a line: Renal toxicity in ICR mouse assessed as effect on blood urea nitrogen level at 100 nmol/kg, sc administered once daily for 2 weeks. The settings on record: in vivo, 336 h. The data set is classed as organism-based.
Data set [23] can be described thus: Hepatotoxicity in ICR mouse assessed as effect on aspartate aminotransferase level at 100 nmol/kg, sc administered once daily for 2 weeks. The data set is classed as toxicity, organism-based. The settings on record: in vivo, 336 h.
A short description of data set [24]: Hepatotoxicity in ICR mouse assessed as effect on alanine aminotransferase level at 100 nmol/kg, sc administered once daily for 2 weeks. The data set is classed as toxicity, organism-based. The settings on record: in vivo, 336 h.
The nature of data set [25]: Renal toxicity in ICR mouse assessed as effect on serum creatinine level at 100 nmol/kg, sc administered once daily for 2 weeks. The data set is classed as organism-based. As to conditions: in vivo, 336 h.

Chain of Albumin (P02768 whole entry): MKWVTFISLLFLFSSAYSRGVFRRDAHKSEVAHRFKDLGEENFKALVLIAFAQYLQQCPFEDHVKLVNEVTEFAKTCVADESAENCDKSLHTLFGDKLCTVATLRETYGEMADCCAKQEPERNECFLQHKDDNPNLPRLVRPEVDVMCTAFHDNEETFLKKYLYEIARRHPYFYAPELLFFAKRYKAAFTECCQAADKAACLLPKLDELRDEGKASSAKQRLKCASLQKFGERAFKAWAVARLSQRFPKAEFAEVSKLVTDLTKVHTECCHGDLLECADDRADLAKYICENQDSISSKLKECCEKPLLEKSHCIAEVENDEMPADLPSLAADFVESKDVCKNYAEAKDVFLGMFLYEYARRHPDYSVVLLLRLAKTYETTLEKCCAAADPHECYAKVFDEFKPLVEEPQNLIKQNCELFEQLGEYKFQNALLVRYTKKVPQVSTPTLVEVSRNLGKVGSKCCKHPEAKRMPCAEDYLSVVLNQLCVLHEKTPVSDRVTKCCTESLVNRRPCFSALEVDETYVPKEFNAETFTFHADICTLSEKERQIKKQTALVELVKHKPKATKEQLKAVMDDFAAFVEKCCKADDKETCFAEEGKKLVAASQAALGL
Chain of Glucagon-like peptide 1 receptor (P43220 whole entry): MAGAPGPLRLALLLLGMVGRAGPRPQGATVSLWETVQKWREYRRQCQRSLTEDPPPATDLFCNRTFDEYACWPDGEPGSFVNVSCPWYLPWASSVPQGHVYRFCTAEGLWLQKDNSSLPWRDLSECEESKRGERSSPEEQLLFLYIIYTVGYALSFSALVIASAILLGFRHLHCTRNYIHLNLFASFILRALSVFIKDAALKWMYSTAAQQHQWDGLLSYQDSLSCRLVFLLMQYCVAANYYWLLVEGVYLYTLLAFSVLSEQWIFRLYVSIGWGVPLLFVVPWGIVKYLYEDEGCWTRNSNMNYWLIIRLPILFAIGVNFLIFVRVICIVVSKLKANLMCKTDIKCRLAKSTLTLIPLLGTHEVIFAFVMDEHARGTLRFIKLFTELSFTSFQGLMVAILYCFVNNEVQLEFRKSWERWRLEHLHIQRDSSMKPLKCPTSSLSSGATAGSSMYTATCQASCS

For `CC[C@H](C)[C@H](NC(=O)[C@H](CC(C)C)NC(=O)[C@H](Cc1c[nH]c2ccccc12)NC(=O)[C@H](CCC(=O)O)NC(=O)[C@@H](NC(=O)[C@H](Cc1ccccc1)NC(=O)[C@H](CCC(=O)O)NC(=O)[C@H](CCCCNC(=O)CC[C@H](NC(=O)CCCCCCCCCCNC(=O)COC(=O)C(C)(C)CCCOc1cc(C)ccc1C)C(=O)O)NC(=O)[C@H](C)NC(=O)[C@H](C)NC(=O)[C@H](CCC(=O)O)NC(=O)[C@H](CCC(=O)O)NC(=O)[C@H](CCC(=O)O)NC(=O)[C@H](CC(C)C)NC(=O)[C@H](Cc1ccc(O)cc1)NC(=O)[C@H](CCC(=O)O)NC(=O)[C@@H](NC(=O)[C@@H](NC(=O)[C@H](CC(=O)O)NC(=O)[C@H](CC(N)=O)NC(=O)[C@@H](NC(=O)[C@H](Cc1ccc(O)cc1)NC(=O)[C@@H](NC(=O)CNC(=O)[C@H](CCC(=O)O)NC(=O)CNC(=O)[C@@H](N)Cc1cnc[nH]1)C(C)O)C(C)O)C(C)C)[C@@H](C)O)[C@@H](C)CC)C(=O)N[C@@H](CCCCN)C(=O)NCC(=O)N[C@@H](CCCCN)C(=O)N1CCC[C@H]1C(=O)N[C@@H](CO)C(=O)N[C@@H](CO)C(=O)NCC(=O)N[C@@H](C)C(=O)N1CCC[C@H]1C(=O)N1CCC[C@H]1C(=O)N1CCC[C@H]1C(=O)N[C@@H](CO)C(=O)O` (stereo partly drawn) (H-HGEG[Thr(3ξ)]Y[Thr(3ξ)]NDVTEYLEEEAAK([γGlu-Aun-Glycoloyl(O-gemfibrozoyl)])EFIEWLIKGKPSSGAPPPS-OH), the Tmax – broadly, the time from dosing to the highest level – in data set [1] came to 2.7 h. Moreover, the pEC50 (commonly the negative decadic logarithm of the EC50, by convention in mol/L) in data set [2] was 9.85. Further, the result with Mus musculus [3] was Active. The K at Albumin is recorded as 7.6. For the same molecule, the half-life (as a rule, how long it takes for the measured level to halve) at 1000 ng/ml in data set [4] was 21.4 h. This molecule also had a half-life in [5] of 3.7 h.
Turning to SEMAGLUTIDE [listing 1 of 2 here], the result in the data set with Mus musculus [6], with Mus musculus [8], with Mus musculus [10], in the data set on Mus musculus [13], in the data set on Mus musculus [14] and in the data set with Mus musculus [18] was Active. For the same molecule, the result with Mus musculus [19] and with Mus musculus [20] was Active. Also, the Activity worked out at 6.7% in the data set with Mus musculus [7], 25.5% in the data set with Mus musculus [12], 13.4% with Mus musculus [16] and 52% in the data set with Mus musculus [17]. In addition, the outcome in the data set with Mus musculus [9], with Mus musculus [11] and with Mus musculus [21] was inactive. Also, in the data set with Mus musculus [15], the TIME was found to be 1680 h.
With SEMAGLUTIDE [listing 2 of 2 here], the Activity result in [22], in data set [23], in data set [24] and in [25] was “Non-Toxic” throughout.
